These results are taken from patent US20200256860A1, “PRINTABLE HYDROGELS FOR BIOMOLECULE IMMOBILIZATION AND STABILIZATION” (priority 2019, published 2020).

Series [1] concerns the target T1, TEM-1 β-lactamase (Escherichia coli, UniProt P62593). Type of series: biochemical. The conditions noted are these: promiscuous aggregating inhibitors.
The nature of series [2]: Aggregate size and polydispersity by dynamic light scattering. Type of series: physicochemical. The conditions noted are these: 100 μM solutions, DLS. How it is done:
Following, to assess the capacity of the printed hydrogels to differentiate between specific and non-specific inhibition, the confirmed promiscuous inhibitors rottlerin and BIS IX (both kinase inhibitors) and tetraiodophenolphthalein (TIPT, another established aggregate forming compound) were tested against TEM-1 β-lactamase (an isoform of β-lactamase) both in solution (modeling a conventional microplate assay) and using a printed hydrogel array. […] In this way, the size selectivity of the printed hydrogel layer excludes the promiscuous inhibitors from accessing the enzyme encapsulated in the hydrogel and thus avoids the false positive hits observed in solution assays. […] Intensity distributions are measured using dynamic light scattering (normalized to maximum intensity).

Series [3] concerns the target T1, TEM-1 β-lactamase. Type of series: biochemical. The note with it: promiscuous aggregating inhibitors, printed hydrogel array, starting concentration 100 μM. The procedure: Images were taken with a Canon DSLR camera (operated in manual focus mode without flash) after 25 min. […] Extracted images were inverted and converted to 8 bit grayscale images. […] Calculation of IC50 values was carried out in OriginPro by plotting the calculated percentage inhibition against the added inhibitor concentration.
Intensity distributions are measured using dynamic light scattering (normalized to maximum intensity).

Series [4] can be described thus: Long-term stability studies (storage at room temperature). Type of series: physicochemical. The conditions noted are these: hydrogel-entrapped enzyme, at least three months. How it is done:
Printed enzyme samples were stored in a closed, dark container at room temperature for time periods ranging from 7 days up to 3 months. Image acquisition and analysis was performed as described previously for the entrapment and proteinase K degradation studies. The intensity of each sample was measured and presented as a ratio of the corresponding control image (freshly printed).

For series [5], the target named is proteinase K (Parengyodontium album, UniProt P06873). Description: Protease protection studies. Format: physicochemical. The note with it: 2 hours. How it is done:
10 μL of a 2 mg/mL proteinase K solution (prepared in 10 mM PBS and 1 mM CaCl2) was pipetted onto the printed enzyme samples both with and without hydrogel encapsulation. The samples were incubated in a closed container for 2 hours at room temperature, after which substrate solutions were pipetted onto the treated samples at the volumes listed in Table 1. Image acquisition and analysis was performed as described for the entrapment studies. The intensity of each sample was measured and presented as a ratio of the corresponding control image (untreated with protease).

T1 sequence (P62593 24-286 limits assumed): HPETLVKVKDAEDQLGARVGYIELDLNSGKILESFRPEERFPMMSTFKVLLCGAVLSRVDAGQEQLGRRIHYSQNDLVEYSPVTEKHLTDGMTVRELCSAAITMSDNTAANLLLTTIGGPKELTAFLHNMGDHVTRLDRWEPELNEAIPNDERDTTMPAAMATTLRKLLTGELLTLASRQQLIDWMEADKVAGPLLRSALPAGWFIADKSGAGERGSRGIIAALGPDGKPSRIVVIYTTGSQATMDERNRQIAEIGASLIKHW
proteinase K, sequence (P06873 106-384, species assumed): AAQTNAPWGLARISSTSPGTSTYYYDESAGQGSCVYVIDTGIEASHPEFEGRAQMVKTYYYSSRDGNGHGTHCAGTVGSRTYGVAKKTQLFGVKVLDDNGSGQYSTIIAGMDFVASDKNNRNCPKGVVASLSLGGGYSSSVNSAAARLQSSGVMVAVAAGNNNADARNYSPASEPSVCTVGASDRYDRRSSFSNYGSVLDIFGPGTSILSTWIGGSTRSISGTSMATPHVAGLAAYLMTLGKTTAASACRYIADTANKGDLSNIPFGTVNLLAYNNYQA

Take `Cn1cc(C2=C(c3cn(CCCSC(=N)N)c4ccccc34)C(=O)NC2=O)c2ccccc21` [BIS IX]: the “Inhibition of β-lactamase in the solution-based assay” value in series [1] is on record as “inhibited β-lactamase”. Further, in series [2], the Aggregate size is on record as 365 ± 9 nm and the Polydispersity came out at 0.36 ± 0.02. Also, the “Inhibition of β-lactamase in the hydrogel-based assay” value in series [3] is “no specific inhibition”.

In the case of `CC(=O)c1c(O)c(C)c(O)c(Cc2c(O)c3c(c(C(=O)/C=C/c4ccccc4)c2O)OC(C)(C)C=C3)c1O` [Rottlerin, rottlerin], the “Inhibition of β-lactamase in the solution-based assay” value in series [1] was “inhibited β-lactamase”. In series [2], this compound gave an Aggregate size of 188 ± 1 nm and a Polydispersity of 0.24 ± 0.01. Moreover, the “Inhibition of β-lactamase in the hydrogel-based assay” value in series [3] was “no specific inhibition”.

As for alkaline phosphatase, the “Activity retained after storage” value in series [4] is given as around 100%. Besides, the “Activity retained after proteinase K” value is on record as around 40% in series [5] (enzyme printed directly on nitrocellulose without hydrogel (printed alone)) and above 80% in series [5] (enzyme printed with POH in the absence of gel formation).
